Data from US6423689B1, “Peptidyl calcium channel blockers” (Warner-Lambert Company, priority 1997, dated 2002).

Molecular target: T1, N-type Ca2+ channels in IMR-32 cells (Homo sapiens, UniProt Q00975)
T1 construct: host or cells: IMR-32 cells, differentiated with dibutyryl cAMP and bromodeoxyuridine
Test: Inhibition of N-type calcium flux in IMR-32 cells (Indo-1 fluorescence, nitrendipine present)
Format: cell-based
Conditions: for IC50: IMR-32 cells, 5 μM nitrendipine, K+ depolarization; for inhibition at 1 µM / inhibition at 10 µM: IMR-32
Description: Measurement of N-type Ca^2+ Channel Blocking Potencies of Compounds in IMR-32 Cells Using the Fluorescent Ca^2+ Indicator Indo-1
IMR-32 cells are a human tumoral cell line of neural origin. […] Calcium flux into these cells may be induced by stimulation with elevated potassium concentrations. The L-channel component of calcium flux may be blocked by adding 5 μM nitrendipine. The remaining component of calcium entry into the IMR-32 cells is due to calcium flux through N-type calcium channels. Intracellular calcium concentrations are measured using the fluorescent calcium indicator Indo 1. The effect of drug concentration on calcium uptake is studied.
The IMR-32 cell line was obtained from the American Type Culture Collection (Rockville, Md.). Cells were grown in Eagle's Minimum Essential Medium with Eagle's salts supplemented with 10% fetal bovine serum, 2 mM L-Gln and antibiotic/antimycotic mixture (Gibco). […] After 7 to 13 days of differentiation, cells were detached using 0.5 mM EDTA and loaded with 5 μM Indo-1 acetoxymethyl ester (Molecular Probes, Eugene, OR) at […] for 45 minutes. Loaded cells were washed twice, resuspended (˜10^7 cells/mL) in assay buffer (10 mM HEPES/Tris pH 7.4 in Hank's Balanced Salt Solution without bicarbonate or phenol red containing 0.5% bovine serum albumin) and kept on ice until use. Fluorescence measurements were carried out in a Photon Technology International (PTI, South Brunswick, N.J.) Model RF-F3004 spectrofluorometer with dual emission monochromators using excitation at 350 nm and emission at 400 and 490 nm. The instrument was equipped with a thermostated cuvette holder with stirring capabilities as well as with a computer-controlled pump which allowed for reagent addition during measurement. Instrument control and data collection was done by PTI's OSCAR software running on an IBM compatible computer. […] Samples were incubated for 10 minutes at 30° C. and then aliquoted into three 10×10 mm disposable acrylic cuvettes. Emission signals at 400 and 490 nm were acquired from each cuvette at 30° C. for 50 seconds. At 20 seconds after the start of reading, cells were depolarized by the addition of 160 μL of stimulation solution (1M KCl, 68 mM CaCl2) to the cuvette via the computer-controlled pump. Ratio of dual emission signals (400 nm/490 nm), which is proportional to intracellular Ca^2+ concentration, was plotted against time, and the difference between maximal response after stimulation and basal value (before stimulation) was determined. Values obtained in this way were plotted as a function of drug concentration. IC50 values of test compounds were calculated by fitting a four-parameter logistic function to the data using the least squares method.

T1 sequence (Q00975 whole entry): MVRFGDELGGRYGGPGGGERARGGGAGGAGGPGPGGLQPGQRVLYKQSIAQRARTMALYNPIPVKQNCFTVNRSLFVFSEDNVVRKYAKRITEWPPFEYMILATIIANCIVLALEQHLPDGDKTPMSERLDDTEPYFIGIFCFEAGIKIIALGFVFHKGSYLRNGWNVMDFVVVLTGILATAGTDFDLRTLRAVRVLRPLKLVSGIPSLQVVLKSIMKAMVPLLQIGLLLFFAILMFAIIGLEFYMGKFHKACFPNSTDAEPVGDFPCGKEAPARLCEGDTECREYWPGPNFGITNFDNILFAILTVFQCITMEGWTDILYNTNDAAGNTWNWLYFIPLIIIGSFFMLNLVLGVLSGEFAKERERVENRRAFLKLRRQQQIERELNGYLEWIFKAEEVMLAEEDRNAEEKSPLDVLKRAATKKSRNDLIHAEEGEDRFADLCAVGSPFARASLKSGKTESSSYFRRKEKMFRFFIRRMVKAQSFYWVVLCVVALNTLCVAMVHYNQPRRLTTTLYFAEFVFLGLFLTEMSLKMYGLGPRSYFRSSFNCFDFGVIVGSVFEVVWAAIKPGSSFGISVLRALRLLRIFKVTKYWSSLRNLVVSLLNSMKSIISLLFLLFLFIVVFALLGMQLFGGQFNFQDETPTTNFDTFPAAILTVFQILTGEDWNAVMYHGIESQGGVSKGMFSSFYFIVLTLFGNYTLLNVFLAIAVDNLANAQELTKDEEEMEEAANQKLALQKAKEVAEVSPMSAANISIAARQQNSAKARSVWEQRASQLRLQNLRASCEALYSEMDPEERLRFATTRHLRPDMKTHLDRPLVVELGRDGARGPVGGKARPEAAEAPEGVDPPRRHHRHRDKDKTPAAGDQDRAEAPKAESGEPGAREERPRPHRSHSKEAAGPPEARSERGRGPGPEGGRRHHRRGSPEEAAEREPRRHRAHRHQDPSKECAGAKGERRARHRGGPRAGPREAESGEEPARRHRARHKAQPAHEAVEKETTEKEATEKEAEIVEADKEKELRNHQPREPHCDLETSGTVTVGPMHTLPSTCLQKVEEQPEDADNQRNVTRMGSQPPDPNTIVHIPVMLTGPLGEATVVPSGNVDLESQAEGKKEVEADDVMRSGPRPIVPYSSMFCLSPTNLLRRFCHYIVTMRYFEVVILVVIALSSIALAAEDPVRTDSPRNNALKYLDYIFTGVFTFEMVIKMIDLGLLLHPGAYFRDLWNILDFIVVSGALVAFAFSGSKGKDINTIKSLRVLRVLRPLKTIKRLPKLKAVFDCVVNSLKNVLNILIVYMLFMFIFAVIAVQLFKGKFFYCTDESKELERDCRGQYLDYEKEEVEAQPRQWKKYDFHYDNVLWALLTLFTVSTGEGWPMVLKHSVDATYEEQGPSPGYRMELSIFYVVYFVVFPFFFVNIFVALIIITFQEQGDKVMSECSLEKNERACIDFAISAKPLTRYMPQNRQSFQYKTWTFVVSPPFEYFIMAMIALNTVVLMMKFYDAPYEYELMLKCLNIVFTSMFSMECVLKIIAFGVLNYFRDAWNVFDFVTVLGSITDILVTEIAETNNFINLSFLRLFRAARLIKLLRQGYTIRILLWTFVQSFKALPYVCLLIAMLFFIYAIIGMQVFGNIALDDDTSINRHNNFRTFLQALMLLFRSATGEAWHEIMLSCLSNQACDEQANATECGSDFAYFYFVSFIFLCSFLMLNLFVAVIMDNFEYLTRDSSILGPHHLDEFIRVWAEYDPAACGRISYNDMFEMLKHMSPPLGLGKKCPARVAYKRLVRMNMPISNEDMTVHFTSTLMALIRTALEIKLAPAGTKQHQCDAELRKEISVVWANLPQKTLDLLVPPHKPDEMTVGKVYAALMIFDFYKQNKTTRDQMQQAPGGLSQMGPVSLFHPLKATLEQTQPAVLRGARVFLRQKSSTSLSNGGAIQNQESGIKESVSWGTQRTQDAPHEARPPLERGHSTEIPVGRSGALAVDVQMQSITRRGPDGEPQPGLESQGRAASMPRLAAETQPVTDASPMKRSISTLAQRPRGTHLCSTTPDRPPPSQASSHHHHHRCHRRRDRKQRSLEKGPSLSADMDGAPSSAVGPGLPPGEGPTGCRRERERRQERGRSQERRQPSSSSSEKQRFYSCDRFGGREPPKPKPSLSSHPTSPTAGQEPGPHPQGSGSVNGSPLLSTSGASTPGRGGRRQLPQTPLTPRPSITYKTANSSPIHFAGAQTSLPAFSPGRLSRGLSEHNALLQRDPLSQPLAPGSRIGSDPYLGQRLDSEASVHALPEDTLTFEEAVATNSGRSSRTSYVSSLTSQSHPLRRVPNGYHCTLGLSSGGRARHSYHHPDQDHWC
T1 sequence (P54289 25-956 partner limits assumed): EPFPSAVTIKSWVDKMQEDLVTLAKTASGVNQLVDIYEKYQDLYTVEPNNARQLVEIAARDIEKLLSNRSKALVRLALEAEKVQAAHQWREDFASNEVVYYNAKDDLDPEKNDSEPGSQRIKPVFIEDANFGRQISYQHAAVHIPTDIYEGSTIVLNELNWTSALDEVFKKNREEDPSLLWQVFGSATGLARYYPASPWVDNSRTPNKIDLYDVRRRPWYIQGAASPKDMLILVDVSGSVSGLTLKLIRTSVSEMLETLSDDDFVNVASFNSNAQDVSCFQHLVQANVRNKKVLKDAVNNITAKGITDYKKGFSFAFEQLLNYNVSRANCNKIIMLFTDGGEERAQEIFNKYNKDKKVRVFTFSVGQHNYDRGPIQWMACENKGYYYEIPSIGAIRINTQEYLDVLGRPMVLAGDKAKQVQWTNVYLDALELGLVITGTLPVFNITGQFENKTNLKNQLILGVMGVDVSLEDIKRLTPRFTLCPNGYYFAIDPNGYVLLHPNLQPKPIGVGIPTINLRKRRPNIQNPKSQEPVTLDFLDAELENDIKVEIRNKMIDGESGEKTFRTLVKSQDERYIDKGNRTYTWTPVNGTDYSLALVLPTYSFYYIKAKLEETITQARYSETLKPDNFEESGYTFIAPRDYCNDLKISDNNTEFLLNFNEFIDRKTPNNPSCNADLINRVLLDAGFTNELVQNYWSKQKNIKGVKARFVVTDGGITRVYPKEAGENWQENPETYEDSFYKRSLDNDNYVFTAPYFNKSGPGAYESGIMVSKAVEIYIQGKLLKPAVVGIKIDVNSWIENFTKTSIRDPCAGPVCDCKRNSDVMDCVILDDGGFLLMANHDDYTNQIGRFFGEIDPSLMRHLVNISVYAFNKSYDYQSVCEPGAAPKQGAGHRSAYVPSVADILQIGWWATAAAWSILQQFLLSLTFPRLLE
T1 sequence (P54289 957-1103 partner limits assumed): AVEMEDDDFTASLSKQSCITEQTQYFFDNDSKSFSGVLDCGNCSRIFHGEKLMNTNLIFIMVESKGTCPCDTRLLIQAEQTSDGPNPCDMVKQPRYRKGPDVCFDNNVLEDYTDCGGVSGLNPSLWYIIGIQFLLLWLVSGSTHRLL
T1 sequence (P54284 whole entry partner): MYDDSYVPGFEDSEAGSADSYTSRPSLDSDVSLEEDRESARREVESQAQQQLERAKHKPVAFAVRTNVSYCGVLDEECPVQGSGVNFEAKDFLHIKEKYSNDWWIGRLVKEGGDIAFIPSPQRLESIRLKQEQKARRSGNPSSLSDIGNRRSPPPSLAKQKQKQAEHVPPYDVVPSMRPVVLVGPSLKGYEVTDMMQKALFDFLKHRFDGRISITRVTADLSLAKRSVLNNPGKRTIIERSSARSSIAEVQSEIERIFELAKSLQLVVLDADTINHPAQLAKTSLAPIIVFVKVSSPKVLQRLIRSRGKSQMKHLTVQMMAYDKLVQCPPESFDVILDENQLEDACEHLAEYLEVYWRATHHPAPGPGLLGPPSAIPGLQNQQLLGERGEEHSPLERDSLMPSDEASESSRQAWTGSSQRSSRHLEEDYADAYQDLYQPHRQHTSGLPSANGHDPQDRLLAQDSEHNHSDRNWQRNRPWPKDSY

Row | SMILES | IC50 [µM] | Inhibition of Calcium Flux in IMR-32 Cells % Inhibition at 1 μM [%] | Inhibition of Calcium Flux in IMR-32 Cells % Inhibition at 10 μM [%] | other results
1 | CCN(CC)C(=O)C1CCCN(C(=O)C(Cc2ccc(OCc3ccccc3)cc2)NC(=O)C(CC(C)C)NC(=O)N2CCCCCC2)C1 (stereo not drawn) [Example 189, Azepane-1-carboxylic acid {1-[1-(4-benzyloxy-benzyl)-2-(3-diethylcarbamoyl-piperidin-1-yl)-2-oxo-ethylcarbamoyl]-3-methyl-butyl}-amide] | 0.94 |  |  | 
2 | CC(C)C[C@H](NC(=O)N1CCCCCC1)C(=O)N[C@@H](Cc1ccc(OCc2ccccc2)cc1)C(=O)NCCc1c[nH]c2ccccc12 (relative stereo) [Example 224, [S-(R*,R*)]-Azepane-1-carboxylic acid (1-{2-(4-benzyloxy-phenyl)-1-[2-(1H-indol-3-yl)-ethylcarbamoyl]-ethylcarbamoyl}-3-methyl-butyl)-amide] |  | 50 | 87 | 
3 | CC(C)C[C@H](NC(=O)Nc1ccccc1Cl)C(=O)N[C@@H](Cc1ccc(OCc2ccccc2)cc1)C(=O)OC(C)(C)C (relative stereo) [Example 73, [S-(R*,R*)]-3-(4-Benzyloxy-phenyl)-2-{2-[3-(2-chloro-phenyl)-ureido]-4-methylpentanoylamino}-propionic acid tert-butyl ester] |  | 60 |  | 
4 | CC(C)CC(NC(=O)N1CCCCCC1)C(=O)NC(Cc1ccc(OCc2ccccc2)cc1)C(=O)NC(C)CNCC(C)N (stereo not drawn) [Example 239, Azepane-1-carboxylic acid {1-[1-[2-(2-amino-propylamino)-1-methyl-ethylcarbamoyl]-2-(4-benzyloxy-phenyl)-ethylcarbamoyl]-3-methyl-butyl}-amide] |  |  |  | inhibition at 1 µM: 22%; inhibition at 10 µM: 23%
5 | CC(C)CC(NC(=O)N1CCCCCC1)C(=O)NC(Cc1ccc(OCc2ccccc2)cc1)C(=O)NC1CCCN(C)C1c1ccccc1 (stereo not drawn) [Example 197, Azepane-1-carboxylic acid {1-[2-(4-benzyloxy-phenyl)-1-(1-methyl-2-phenyl-piperidin-3-ylcarbamoyl)-ethylcarbamoyl]-3-methyl-butyl}-amide] | 0.22 |  |  | 
6 | CCCCNC(=O)N[C@@H](CC(C)C)C(=O)N[C@@H](Cc1ccc(OCc2ccccc2)cc1)C(=O)OC(C)(C)C (relative stereo) [Example 59, [S-(R*,R*)]-3-(4-Benzyloxy-phenyl)-2-[2-(3-butyl-ureido)-4-methyl-pentanoylamino]-propionic acid tert-butyl ester] |  | 41 | 61 | 
7 | Cc1cccc(C)c1NC(=O)N[C@@H](CC(C)C)C(=O)N[C@@H](Cc1ccc(OCc2ccccc2)cc1)C(=O)OC(C)(C)C (relative stereo) [Example 62, [S-(R*,R*)]-3-(4-Benzyloxy-phenyl)-2-{2-[3-(2,6-dimethyl-phenyl)-ureido]-4-methyl-pentanoylamino}-propionic acid tert-butyl ester] |  | 29 |  | 
8 | CC(C)C[C@H](NC(=O)NC1CC1c1ccccc1)C(=O)N[C@@H](Cc1ccc(OCc2ccccc2)cc1)C(=O)OC(C)(C)C (relative stereo) [Example 75, [S-(R*,R*)]-3-(4-Benzyloxy-phenyl)-2-{4-methyl-2-[3-(2-phenyl-cyclopropyl)-ureido]-pentanoylamino}-propionic acid tert-butyl ester] |  | 28 |  | 
9 | CC(C)CC(NC(=O)N1CCCCCC1)C(=O)NC(Cc1ccc(OCc2ccccc2)cc1)C(=O)N1CCCC(CO)C1 (stereo not drawn) [Example 256, Azepane-1-carboxylic acid {1-[1-(4-benzyloxy-benzyl)-2-(3-hydroxymethyl-piperidin-1-yl)-2-oxo-ethylcarbamoyl]-3-methyl-butyl}-amide] | 1.5 |  |  | 
10 | CNC(=S)N[C@@H](CC(C)C)C(=O)N[C@@H](Cc1ccc(OCc2ccccc2)cc1)C(=O)OC(C)(C)C (relative stereo) [Example 51, [S-(R*,R*)]-3-(4-Benzyloxy-phenyl)-2-[4-methyl-2-(3-methyl-thioureido)-pentanoylamino]-propionic acid tert-butyl ester] |  | 32 | 85 | 
11 | CC(C)C[C@H](NC(=O)N1CCCCCC1)C(=O)N[C@@H](Cc1ccc(C#Cc2ccccc2)cc1)C(=O)NC(C)(C)C (relative stereo) [Example 134, [S(R*,R*)]-Azepane-1-carboxylic acid {1-[1-tert-butylcarbamoyl-2-(4-phenylethynyl-phenyl)-ethylcarbamoyl]-3-methyl-butyl}-amide] |  | 29 | 56 | 
12 | CC(C)C[C@H](NC(=O)Nc1ccc(Br)cc1)C(=O)N[C@@H](Cc1ccc(OCc2ccccc2)cc1)C(=O)OC(C)(C)C (relative stereo) [Example 84, [S-(R*,R*)]-3-(4-Benzyloxy-phenyl)-2-{2-[3-(^4-bromo-phenyl)-ureido]-4-methyl-pentanoylamino}-propionic acid tert-butyl ester] |  | 49 |  | 
13 | CCC(COC)NC(=O)C(Cc1ccc(OCc2ccccc2)cc1)NC(=O)C(CC(C)C)NC(=O)N1CCCCCC1 (stereo not drawn) [Example 245, Azepane-1-carboxylic acid {1-[2-(4-benzyloxy-phenyl)-1-(1-methoxymethyl-propylcarbamoyl)-ethylcarbamoyl]-3-methyl-butyl}-amide] |  |  |  | inhibition at 1 µM: 57%; inhibition at 10 µM: 89%
14 | CC(C)C[C@H](NC(=O)N1CCCCCC1)C(=O)N[C@@H](Cc1ccc(OCc2ccccc2)cc1)C(=O)NC1CC(C)(C)NC(C)(C)C1 [Example 203, [S-(R*,R*)]-Azepane-1-carboxylic acid {1-[2-(4-benzyloxy-phenyl)-1-(2,2,6,6-tetramethyl-piperidin-4-ylcarbamoyl)-ethylcarbamoyl]-3-methyl-butyl}-amide] | 4.7 |  |  | inhibition at 1 µM: 15%; inhibition at 10 µM: 70%
15 | CSc1ccc(NC(=O)N[C@@H](CC(C)C)C(=O)N[C@@H](Cc2ccc(OCc3ccccc3)cc2)C(=O)OC(C)(C)C)cc1 (relative stereo) [Example 64, [S-(R*,R*)]-3-(4-Benzyloxy-phenyl)-2-{4-methyl-2-[3-(4-methylsulfanyl-phenyl)-ureido]-pentanoylamino}-propionic acid tert-butyl ester] |  | 31 |  | 
16 | CC(C)(C)NC(=O)[C@H](Cc1ccc(OCc2ccccc2)cc1)NC(=O)[C@H](Cc1ccc(O)cc1)NC(=O)N1CCCCCC1 [Example 160, [S-(R*,R*)]-Azepane-1-carboxylic acid [1-[2-(4-benzyloxy-phenyl)-1-tert-butylcarbamoyl-ethylcarbamoyl]-2-(4-hydroxy-phenyl)-ethyl]-amide] | 2.5 |  |  | 
17 | CC(C)C[C@H](NC(=O)N1CCCCCC1)C(=O)N[C@@H](Cc1ccc(OCc2ccccc2)cc1)C(=O)N1CCOCC1 [Example 166, [S-(R*,R*)]-Azepane-1-carboxylic acid {1-[1-(4-benzyloxy-benzyl)-2-morpholin-4-yl-2-oxo-ethylcarbamoyl]-3-methyl-butyl}-amide] | 1.3 |  |  | 
18 | CC(C)C[C@H](NC(=S)NC12CC3CC(CC(C3)C1)C2)C(=O)N[C@@H](Cc1ccc(OCc2ccccc2)cc1)C(=O)OC(C)(C)C (relative stereo) [Example 46, [S-(R*,R*)]-3-(4-Benzyloxy-phenyl)-2-{2-[3-(1-adamantyl)-thioureido]-4-methylpentanoylamino}-propionic acid, tert-butyl ester] |  | 29 | 49 | 
19 | CC(C)C[C@H](NC(=O)Nc1ccccc1)C(=O)N[C@@H](Cc1ccc(OCc2ccccc2)cc1)C(=O)OC(C)(C)C (relative stereo) [Example 54, [S-(R*,R*)]-3-(4-Benzyloxy-phenyl)-2-[4-methyl-2-(3-phenyl-ureido)-pentanoylamino]propionic acid tert-butyl ester] |  | 44 | 63 | 
20 | COc1ccccc1C(=O)N[C@@H](CC(C)C)C(=O)N[C@@H](Cc1ccc(OCc2ccccc2)cc1)C(=O)OC(C)(C)C (relative stereo) [Example 98, [S-(R*,R*)]-3-(4-Benzyloxy-phenyl)-2-[2-(2-methoxy-benzoylamino)-4-methyl-pentanoylamino]-propionic acid tert-butyl ester] |  | 34 |  | 
